Laboratory results reported in the supplement of paper PMC10307832.

Experiments:
Test in all cases: relative viability (nuclei count vs DMSO), 5 days (fraction); higher = more cells survive
Dasatinib + Pemetrexed = compound: Cc1nc(Nc2ncc(C(=O)Nc3c(C)cccc3Cl)s2)cc(N2CCN(CCO)CC2)n1 [Dasatinib] + Nc1nc2[nH]cc(CCc3ccc(C(=O)N[C@@H](CCC(=O)O)C(=O)O)cc3)c2c(=O)[nH]1 [Pemetrexed] (partner 0.2 µM)
How it was run: (§1)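 Relative viability equals treated-well nuclei counts divided by vehicle-well nuclei counts. Counts came from 4× images of lung cancer cell lines grown in 1536-well plates for 5 days after pin-tool dosing on the day after seeding. Dosing used one drug alone or a fixed anchor-drug dose plus five library-drug doses (not always all listed) in √10 steps, and values are medians of duplicate plates.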

Dasatinib + Palbociclib = compound: Cc1nc(Nc2ncc(C(=O)Nc3c(C)cccc3Cl)s2)cc(N2CCN(CCO)CC2)n1 [Dasatinib] + CC(=O)c1c(C)c2cnc(Nc3ccc(N4CCNCC4)cn3)nc2n(C2CCCC2)c1=O [Palbociclib] (partner 0.5 µM)
How it was run: as §1

ALW-II-49-7 + Vorinostat = compound: Cc1ccc(C(=O)Nc2cccc(C(F)(F)F)c2)cc1Nc1cncc(C(N)=O)c1 [ALW-II-49-7] + O=C(CCCCCCC(=O)Nc1ccccc1)NO [Vorinostat] (partner 1 µM)
How it was run: as §1

XMD13-2 + Dasatinib = compound: C1CC1C(=O)NC2=NNC3=C2C=CC(=C3)C4=CC(=CC=C4)C(=O)NC5CC5 [XMD13-2] + Cc1nc(Nc2ncc(C(=O)Nc3c(C)cccc3Cl)s2)cc(N2CCN(CCO)CC2)n1 [Dasatinib] (partner 0.075 µM)
How it was run: as §1

| Cell Line | relative viability (Dasatinib + Pemetrexed; first compound 0.005 µM) | relative viability (Dasatinib + Pemetrexed; first compound 0.01581 µM) | relative viability (Dasatinib + Pemetrexed; first compound 0.05 µM) | relative viability (Dasatinib + Pemetrexed; first compound 0.1581 µM) | relative viability (Dasatinib + Pemetrexed; first compound 0.5 µM) | relative viability (Dasatinib + Palbociclib; first compound 0.005 µM) | relative viability (Dasatinib + Palbociclib; first compound 0.01581 µM) | relative viability (Dasatinib + Palbociclib; first compound 0.05 µM) | relative viability (Dasatinib + Palbociclib; first compound 0.1581 µM) | relative viability (Dasatinib + Palbociclib; first compound 0.5 µM) | relative viability (ALW-II-49-7 + Vorinostat; first compound 0.08 µM) | relative viability (ALW-II-49-7 + Vorinostat; first compound 0.253 µM) | relative viability (ALW-II-49-7 + Vorinostat; first compound 0.8 µM) | relative viability (ALW-II-49-7 + Vorinostat; first compound 2.53 µM) | relative viability (ALW-II-49-7 + Vorinostat; first compound 8 µM) | relative viability (XMD13-2 + Dasatinib; first compound 0.05 µM) | relative viability (XMD13-2 + Dasatinib; first compound 0.1581 µM) | relative viability (XMD13-2 + Dasatinib; first compound 0.5 µM) | relative viability (XMD13-2 + Dasatinib; first compound 1.581 µM) | relative viability (XMD13-2 + Dasatinib; first compound 5 µM) |
| --- | --- | --- | --- | --- | --- | --- | --- | --- | --- | --- | --- | --- | --- | --- | --- | --- | --- | --- | --- | --- |
| NCI-H1734 | 0.377 | 0.416 | 0.387 | 0.376 | 0.341 | 0.328 | 0.285 | 0.295 | 0.208 | 0.2 | 0.763 | 0.8 | 0.78 | 0.795 | 0.727 | 0.493 | 0.419 | 0.484 | 0.373 | 0.428 |
| NCI-H1755 | 0.465 | 0.357 | 0.413 | 0.346 | 0.235 | 0.438 | 0.435 | 0.401 | 0.322 | 0.235 | 0.88 | 0.83 | 0.783 | 0.685 | 0.608 | 0.526 | 0.425 | 0.418 | 0.459 | 0.428 |
| NCI-H1793 | 0.609 | 0.503 | 0.556 | 0.424 | 0.488 | 0.217 | 0.279 | 0.236 | 0.247 | 0.231 | 0.816 | 0.811 | 0.616 | 0.798 | 0.431 | 0.457 | – | 0.41 | 0.4 | 0.429 |
| NCI-H1915 | 0.489 | 0.455 | 0.449 | 0.337 | 0.159 | 0.482 | 0.438 | 0.403 | 0.195 | 0.163 | 0.585 | 0.483 | 0.498 | 0.348 | 0.256 | 0.362 | 0.342 | 0.322 | 0.302 | 0.305 |
| NCI-H1944 | 0.573 | 0.583 | 0.49 | 0.234 | 0.158 | 0.315 | 0.242 | 0.249 | 0.119 | 0.111 | 0.659 | 0.613 | 0.497 | 0.478 | 0.377 | 0.226 | 0.236 | 0.229 | 0.235 | 0.213 |
| NCI-H1975 | 0.284 | 0.286 | 0.297 | 0.239 | 0.201 | 0.519 | 0.527 | 0.482 | 0.341 | 0.134 | 0.713 | 0.686 | 0.643 | 0.66 | 0.542 | 0.444 | 0.361 | 0.467 | 0.324 | 0.393 |
| NCI-H1993 | 0.591 | 0.498 | 0.616 | 0.395 | 0.385 | 0.65 | 0.623 | 0.622 | 0.662 | 0.373 | 0.843 | 0.72 | 0.837 | 0.828 | 0.796 | 0.601 | 0.44 | 0.526 | 0.519 | 0.573 |
| NCI-H2009 | 1.17 | 1.09 | 1.31 | 0.946 | 0.243 | 0.186 | 0.137 | 0.138 | 0.103 | 0.101 | 0.749 | 0.838 | 0.731 | 0.695 | 0.657 | 0.366 | 0.277 | 0.432 | 0.288 | 0.278 |
| NCI-H2023 | 0.204 | 0.238 | 0.195 | 0.175 | 0.191 | 0.319 | 0.304 | 0.303 | 0.326 | 0.204 | 0.683 | 0.688 | 0.434 | 0.64 | 0.625 | 0.806 | 0.545 | 0.688 | 0.559 | 0.64 |
| NCI-H2085 | 0.743 | 0.756 | 0.491 | 0.23 | 0.205 | 0.495 | 0.485 | 0.395 | 0.191 | 0.206 | 0.787 | 0.899 | 0.718 | 0.817 | 0.702 | 0.265 | 0.246 | 0.232 | 0.235 | 0.243 |
| NCI-H2087 | 0.719 | 0.617 | 0.67 | 0.649 | 0.471 | 0.223 | 0.206 | 0.238 | 0.184 | 0.142 | 0.687 | 0.597 | 0.662 | 0.508 | 0.38 | 0.997 | 0.826 | 0.938 | 0.87 | 0.796 |
| NCI-H2126 | 0.736 | 0.608 | 0.636 | 0.499 | 0.344 | 0.362 | 0.347 | 0.309 | 0.298 | 0.285 | 0.8 | 0.877 | 0.778 | 0.71 | 0.707 | 0.76 | 0.595 | 0.633 | 0.535 | 0.561 |
| NCI-H2170 | 0.255 | 0.257 | 0.243 | 0.221 | 0.206 | 0.377 | 0.394 | 0.397 | 0.288 | 0.204 | 0.917 | 0.921 | 0.841 | 0.796 | 0.867 | 0.791 | 0.518 | 0.601 | 0.55 | 0.541 |
| NCI-H2228 | 0.323 | 0.325 | 0.319 | 0.259 | 0.128 | 0.73 | 0.611 | 0.652 | 0.364 | 0.367 | 0.534 | 0.414 | 0.513 | 0.674 | 0.49 | 0.753 | 0.586 | 0.59 | 0.384 | 0.532 |
| NCI-H2342 | 0.742 | 0.705 | 0.676 | 0.514 | 0.285 | 0.483 | 0.646 | 0.464 | 0.393 | 0.267 | 0.702 | 0.922 | 0.744 | 0.837 | 0.859 | 0.334 | 0.357 | 0.334 | 0.313 | 0.349 |
| NCI-H2347 | 0.375 | 0.38 | 0.342 | 0.253 | 0.259 | 0.393 | 0.438 | 0.415 | 0.329 | 0.224 | 0.519 | 0.5 | 0.653 | 0.49 | 0.559 | 0.638 | 0.292 | 0.284 | 0.298 | 0.304 |
| NCI-H2405 | 0.852 | 0.65 | 0.422 | 0.229 | 0.22 | 0.498 | 0.374 | 0.3 | 0.219 | 0.186 | 1.08 | 1.14 | 0.968 | 0.905 | 0.789 | 0.211 | 0.259 | 0.239 | 0.171 | 0.226 |
| NCI-H3122 | 0.208 | 0.205 | 0.194 | 0.198 | 0.186 | 0.201 | 0.214 | 0.207 | 0.239 | 0.131 | 1.06 | 0.907 | 0.854 | 1.15 | 0.987 | 1.01 | 0.863 | 0.843 | 0.723 | 0.77 |
| PC-3 [JPC-3] | 1.22 | 1.1 | 1.08 | 0.717 | 0.474 | 0.593 | 0.534 | 0.607 | 0.568 | 0.465 | 0.833 | 0.822 | 0.678 | 0.846 | 0.742 | 1.22 | 0.991 | 1 | 0.959 | 1.11 |
| PC-14 | 0.146 | 0.121 | 0.108 | 0.119 | 0.124 | 0.561 | 0.502 | 0.427 | 0.221 | 0.0393 | 0.474 | 0.544 | 0.668 | 0.562 | 0.588 | 0.279 | 0.296 | 0.335 | 0.242 | 0.317 |
| RERF-LC-KJ | 0.53 | 0.466 | 0.405 | 0.471 | 0.457 | 1.08 | 0.994 | 1.11 | 0.782 | 0.81 | 0.646 | 0.731 | 0.653 | 0.755 | 0.646 | 0.983 | 0.918 | 0.801 | 0.72 | 0.694 |
| SK-LU-1 | 0.864 | 0.617 | 0.467 | 0.306 | 0.282 | 0.34 | 0.228 | 0.241 | 0.207 | 0.189 | 0.754 | 0.64 | 0.551 | 0.628 | 0.493 | 0.195 | 0.185 | 0.199 | 0.164 | 0.199 |
| SK-MES-1 | 0.985 | 0.879 | 0.709 | 0.314 | 0.224 | 0.353 | 0.358 | 0.269 | 0.187 | 0.154 | 1.14 | 1.16 | 1.05 | 1.04 | 0.938 | 0.347 | 0.349 | 0.296 | 0.325 | 0.374 |
| SW 900 | 0.47 | 0.348 | 0.43 | 0.186 | 0.203 | 0.454 | 0.273 | 0.276 | 0.222 | 0.183 | 0.539 | 0.554 | – | 0.517 | 0.289 | 0.616 | 0.537 | 0.601 | 0.578 | 0.652 |
| SW 1573 | 0.889 | – | 0.742 | 0.607 | 0.548 | 0.36 | – | 0.295 | 0.182 | 0.208 | 0.612 | 0.663 | 0.652 | 0.648 | 0.567 | 0.593 | 0.458 | 0.514 | 0.454 | 0.397 |
